Data on 14 compounds can be found in patent publication US9340580B2, “Peptide with multiple epitopes” (priority 2007, dated 2016).

Where a SMILES comes first, the peptide text is derived from it.

A short description of the data set: solubility pre-screen in an aqueous, acidic milieu. Note: test concentration or dose not given here. The format is physicochemical.
Regarding `CC[C@H](C)[C@H](N)C(=O)N[C@@H](CC(=O)O)C(=O)N[C@@H](CC(C)C)C(=O)N[C@@H](CCCNC(=N)N)C(=O)N[C@@H](CCC(N)=O)C(=O)N[C@@H](CCSC)C(=O)N[C@@H](CCCNC(=N)N)C(=O)N[C@H](C(=O)N[C@H](C(=O)N[C@H](C(=O)N1CCC[C@H]1C(=O)N[C@H](C(=O)N[C@@H](CCCNC(=N)N)C(=O)O)[C@@H](C)CC)[C@@H](C)O)C(C)C)[C@@H](C)O` [HDM01] (H-IDLRQMRTVTPIR-OH; N-terminus and C-terminus assumed), the Solubility test result is “YES”.
With `CC[C@H](C)[C@H](NC(=O)[C@@H]1CCCN1C(=O)[C@@H](NC(=O)[C@@H](NC(=O)[C@@H](NC(=O)[C@@H](N)CCCNC(=N)N)[C@@H](C)O)C(C)C)[C@@H](C)O)C(=O)N[C@@H](CCCNC(=N)N)C(=O)N[C@@H](CCSC)C(=O)N[C@@H](CCC(N)=O)C(=O)NCC(=O)NCC(=O)N[C@@H](CS)C(=O)NCC(=O)O` [HDM02] (H-RTVTPIRMQGGCG-OH; N-terminus and C-terminus assumed) the entry was “YES”; with `CC(C)C[C@H](NC(=O)[C@H](CC(=O)O)NC(=O)[C@H](CC(C)C)NC(=O)[C@H](CO)NC(=O)[C@H](CCC(N)=O)NC(=O)[C@H](CC(N)=O)NC(=O)[C@@H](N)CCCNC(=N)N)C(=O)N[C@@H](C)C(=O)N[C@@H](CCC(=O)O)C(=O)N[C@@H](CCC(N)=O)C(=O)N[C@@H](CCC(=O)O)C(=O)N[C@@H](CC(C)C)C(=O)N[C@H](C(=O)N[C@@H](CC(=O)O)C(=O)N[C@@H](CS)C(=O)N[C@@H](C)C(=O)N[C@@H](CO)C(=O)N[C@@H](CCC(N)=O)C(=O)N[C@@H](Cc1c[nH]cn1)C(=O)O)C(C)C` [HDM03C] (H-RNQSLDLAEQELVDCASQH-OH; N-terminus and C-terminus assumed), “YES”.
The result for `CC[C@H](C)[C@H](NC(=O)[C@H](Cc1ccc(O)cc1)NC(=O)[C@@H](N)CCC(=O)O)C(=O)N[C@@H](CCC(N)=O)C(=O)N[C@@H](Cc1c[nH]cn1)C(=O)N[C@@H](CC(N)=O)C(=O)NCC(=O)N[C@H](C(=O)N[C@H](C(=O)N[C@@H](CCC(N)=O)C(=O)N[C@@H](CCC(=O)O)C(=O)N[C@@H](CO)C(=O)N[C@@H](Cc1ccc(O)cc1)C(=O)O)C(C)C)C(C)C` [HDM05] (H-EYIQHNGVVQESY-OH) reads “YES”; that for `CC(C)[C@H](NC(=O)[C@H](Cc1ccc(O)cc1)NC(=O)[C@@H](N)CCCNC(=N)N)C(=O)N[C@@H](C)C(=O)N[C@@H](CCCNC(=N)N)C(=O)N[C@@H](CCC(=O)O)C(=O)N[C@@H](CCC(N)=O)C(=O)N[C@@H](CO)C(=O)N[C@@H](CS)C(=O)N[C@@H](CCCNC(=N)N)C(=O)N[C@@H](CCCNC(=N)N)C(=O)N1CCC[C@H]1C(=O)N[C@@H](CC(N)=O)C(=O)O` [HDM06] (H-RYVAREQSCRRPN-OH; N-terminus and C-terminus assumed), “YES”.
Regarding `CC[C@H](C)[C@H](NC(=O)[C@H](CCCCN)NC(=O)[C@H](CC(N)=O)NC(=O)[C@@H](NC(=O)[C@H](CC(N)=O)NC(=O)[C@@H]1CCCN1)C(C)C)C(=O)N[C@@H](CCCNC(=N)N)C(=O)N[C@@H](CCC(=O)O)C(=O)N[C@@H](C)C(=O)N[C@@H](CC(C)C)C(=O)N[C@@H](C)C(=O)N[C@@H](CCC(N)=O)C(=O)N[C@H](C(=O)O)[C@@H](C)O` [HDM07] (H-PNVNKIREALAQT-OH), the Solubility test result is on record as “YES”.
As for `CC[C@H](C)[C@H](NC(=O)[C@H](CCCCN)NC(=O)[C@@H](N)CC(N)=O)C(=O)N[C@@H](CCCNC(=N)N)C(=O)N[C@@H](CCC(=O)O)C(=O)N[C@@H](C)C(=O)N[C@@H](CC(C)C)C(=O)N[C@@H](C)C(=O)N[C@@H](CCC(N)=O)C(=O)N[C@H](C(=O)N[C@@H](Cc1c[nH]cn1)C(=O)N[C@@H](CO)C(=O)N[C@@H](C)C(=O)O)[C@@H](C)O` [HDM08] (H-NKIREALAQTHSA-OH), the Solubility test result is reported as “YES”.
For the compound `CC[C@H](C)[C@H](N)C(=O)NCC(=O)N[C@H](C(=O)N[C@@H](CCCCN)C(=O)N[C@@H](CC(=O)O)C(=O)N[C@@H](CC(C)C)C(=O)N[C@@H](CC(=O)O)C(=O)N[C@@H](C)C(=O)N[C@@H](Cc1ccccc1)C(=O)N[C@@H](CCCNC(=N)N)C(=O)N[C@@H](Cc1c[nH]cn1)C(=O)N[C@@H](Cc1ccc(O)cc1)C(=O)N[C@@H](CC(=O)O)C(=O)O)[C@@H](C)CC` [HDM11] (H-IGIKDLDAFRHYD-OH), the Solubility test result is “YES”.
The result for `CC(C)C[C@H](NC(=O)[C@H](CC(=O)O)NC(=O)[C@@H](N)CCCCN)C(=O)N[C@@H](CC(=O)O)C(=O)N[C@@H](C)C(=O)N[C@@H](Cc1ccccc1)C(=O)N[C@@H](CCCNC(=N)N)C(=O)N[C@@H](Cc1c[nH]cn1)C(=O)N[C@@H](Cc1ccc(O)cc1)C(=O)N[C@@H](CC(=O)O)C(=O)NCC(=O)N[C@@H](CCCNC(=N)N)C(=O)N[C@H](C(=O)O)[C@@H](C)O` [HDM12] (H-KDLDAFRHYDGRT-OH) reads “YES”; that for `C[C@@H](O)[C@H](NC(=O)[C@H](CC(=O)O)NC(=O)[C@H](Cc1c[nH]c2ccccc12)NC(=O)[C@H](CO)NC(=O)[C@H](CC(N)=O)NC(=O)[C@@H](N)CCCNC(=N)N)C(=O)N[C@@H](CC(N)=O)C(=O)N[C@@H](Cc1c[nH]c2ccccc12)C(=O)NCC(=O)N[C@@H](CC(=O)O)C(=O)N[C@@H](CC(N)=O)C(=O)NCC(=O)N[C@@H](Cc1ccc(O)cc1)C(=O)NCC(=O)O` [HDM16A] (H-RNSWDTNWGDNGYG-OH), “YES”.
Regarding `CC(C)C[C@H](NC(=O)[C@H](CC(=O)O)NC(=O)[C@H](CC(C)C)NC(=O)[C@H](CCC(=O)O)NC(=O)[C@H](CO)NC(=O)[C@@H]1CCCN1C(=O)[C@@H](NC(=O)[C@H](CC(N)=O)NC(=O)[C@@H](NC(=O)[C@H](CO)NC(=O)[C@@H](N)CC(N)=O)C(C)C)C(C)C)C(=O)N[C@@H](CCCNC(=N)N)C(=O)N[C@@H](CO)C(=O)N[C@@H](CC(C)C)C(=O)N[C@@H](CCCNC(=N)N)C(=O)N[C@H](C(=O)O)[C@@H](C)O` [HDM17] (H-NSVNVPSELDLRSLRT-OH), the Solubility test entry is “YES”.
With `CC[C@H](C)[C@H](NC(=O)[C@H](CCC(=O)O)NC(=O)[C@H](Cc1c[nH]cn1)NC(=O)[C@H](CC(N)=O)NC(=O)[C@H](C)NC(=O)[C@H](CS)NC(=O)[C@H](CC(=O)O)NC(=O)[C@H](CCCCN)NC(=O)[C@@H](NC(=O)[C@H](CC(=O)O)NC(=O)[C@@H](NC(=O)[C@H](CCC(N)=O)NC(=O)[C@@H](N)CC(=O)O)C(C)C)C(C)C)C(=O)N[C@@H](CCCCN)C(=O)N[C@@H](CCCCN)C(=O)O` [HDM19] (H-DQVDVKDCANHEIKK-OH) the entry was “YES”.
Regarding `CC[C@H](C)[C@H](NC(=O)[C@@H](NC(=O)[C@@H](N)CS)[C@@H](C)CC)C(=O)N[C@@H](Cc1c[nH]cn1)C(=O)N[C@@H](CCCNC(=N)N)C(=O)NCC(=O)N[C@@H](CCCCN)C(=O)N1CCC[C@H]1C(=O)N[C@@H](Cc1ccccc1)C(=O)N[C@@H](CCC(N)=O)C(=O)N[C@@H](CC(C)C)C(=O)N[C@@H](CCC(=O)O)C(=O)N[C@@H](C)C(=O)O` [HDM20] (H-CIIHRGKPFQLEA-OH; N-terminus and C-terminus assumed), the Solubility test entry was “YES”.
The result for `CC(C)[C@H](NC(=O)[C@H](C)NC(=O)[C@@H](N)CCC(=O)O)C(=O)N[C@@H](Cc1ccccc1)C(=O)N[C@@H](CCC(=O)O)C(=O)N[C@@H](C)C(=O)N[C@@H](CC(N)=O)C(=O)N[C@@H](CCC(N)=O)C(=O)N[C@@H](CC(N)=O)C(=O)N[C@H](C(=O)N[C@@H](CCCCN)C(=O)N[C@H](C(=O)N[C@@H](C)C(=O)N[C@@H](CCCCN)C(=O)O)[C@@H](C)O)[C@@H](C)O` [HDM22A] (H-EAVFEANQNTKTAK-OH; N-terminus and C-terminus assumed) reads “YES”.
